From patent US12448389B2, “BRM targeting compounds and associated methods of use” (Prelude Therapeutics Incorporated, priority 2020, dated 2025)

What was measured:
SMARCA2-HiBiT = biological target: T1, SMARCA2-HiBiT (Homo sapiens, UniProt P51531); assay: SMARCA2 HiBiT degradation assay in HeLa cells; type: cell-based; details: 18 hours incubation; for DC50: read-out: HeLa_HiBit-SM2 DC50; for Dmax: HeLa, read-out: HeLa-HiBit-SM2 Dmax (%)
T1 construct: SMARCA2-HiBiT knock-in Hela monoclonal cell (CS302366); host or cells: HeLa monoclonal knock-in line (CRISPR HiBiT knock-in at the endogenous locus, heterozygous)
How it was run: (§1)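 HeLa monoclonal lines with heterozygous HiBiT knock-in were seeded at 2500 cells/well in EMEM with 10% FBS and treated with compound for 18 h at 37 °C. Remaining tagged protein was measured by Nano-Glo HiBiT lytic luminescence after 30–60 min at RT, and values came from curve fitting.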

SMARCA4-HiBiT = biological target: T2, SMARCA4-HiBiT (Homo sapiens, UniProt P51532); assay: SMARCA4 HiBiT degradation assay in HeLa cells; type: cell-based; details: 18 hours incubation; for DC50: read-out: HeLa-HiBit-SM4 DC50; for Dmax: HeLa, read-out: HeLa-HiBit-SM4 Dmax (%)
T2 construct: SMARCA4-HiBiT knock-in Hela monoclonal cell (CS3023226); host or cells: HeLa monoclonal knock-in line (CRISPR HiBiT knock-in at the endogenous locus, heterozygous)
How it was run: as §1

T1 sequence (P51531 whole entry): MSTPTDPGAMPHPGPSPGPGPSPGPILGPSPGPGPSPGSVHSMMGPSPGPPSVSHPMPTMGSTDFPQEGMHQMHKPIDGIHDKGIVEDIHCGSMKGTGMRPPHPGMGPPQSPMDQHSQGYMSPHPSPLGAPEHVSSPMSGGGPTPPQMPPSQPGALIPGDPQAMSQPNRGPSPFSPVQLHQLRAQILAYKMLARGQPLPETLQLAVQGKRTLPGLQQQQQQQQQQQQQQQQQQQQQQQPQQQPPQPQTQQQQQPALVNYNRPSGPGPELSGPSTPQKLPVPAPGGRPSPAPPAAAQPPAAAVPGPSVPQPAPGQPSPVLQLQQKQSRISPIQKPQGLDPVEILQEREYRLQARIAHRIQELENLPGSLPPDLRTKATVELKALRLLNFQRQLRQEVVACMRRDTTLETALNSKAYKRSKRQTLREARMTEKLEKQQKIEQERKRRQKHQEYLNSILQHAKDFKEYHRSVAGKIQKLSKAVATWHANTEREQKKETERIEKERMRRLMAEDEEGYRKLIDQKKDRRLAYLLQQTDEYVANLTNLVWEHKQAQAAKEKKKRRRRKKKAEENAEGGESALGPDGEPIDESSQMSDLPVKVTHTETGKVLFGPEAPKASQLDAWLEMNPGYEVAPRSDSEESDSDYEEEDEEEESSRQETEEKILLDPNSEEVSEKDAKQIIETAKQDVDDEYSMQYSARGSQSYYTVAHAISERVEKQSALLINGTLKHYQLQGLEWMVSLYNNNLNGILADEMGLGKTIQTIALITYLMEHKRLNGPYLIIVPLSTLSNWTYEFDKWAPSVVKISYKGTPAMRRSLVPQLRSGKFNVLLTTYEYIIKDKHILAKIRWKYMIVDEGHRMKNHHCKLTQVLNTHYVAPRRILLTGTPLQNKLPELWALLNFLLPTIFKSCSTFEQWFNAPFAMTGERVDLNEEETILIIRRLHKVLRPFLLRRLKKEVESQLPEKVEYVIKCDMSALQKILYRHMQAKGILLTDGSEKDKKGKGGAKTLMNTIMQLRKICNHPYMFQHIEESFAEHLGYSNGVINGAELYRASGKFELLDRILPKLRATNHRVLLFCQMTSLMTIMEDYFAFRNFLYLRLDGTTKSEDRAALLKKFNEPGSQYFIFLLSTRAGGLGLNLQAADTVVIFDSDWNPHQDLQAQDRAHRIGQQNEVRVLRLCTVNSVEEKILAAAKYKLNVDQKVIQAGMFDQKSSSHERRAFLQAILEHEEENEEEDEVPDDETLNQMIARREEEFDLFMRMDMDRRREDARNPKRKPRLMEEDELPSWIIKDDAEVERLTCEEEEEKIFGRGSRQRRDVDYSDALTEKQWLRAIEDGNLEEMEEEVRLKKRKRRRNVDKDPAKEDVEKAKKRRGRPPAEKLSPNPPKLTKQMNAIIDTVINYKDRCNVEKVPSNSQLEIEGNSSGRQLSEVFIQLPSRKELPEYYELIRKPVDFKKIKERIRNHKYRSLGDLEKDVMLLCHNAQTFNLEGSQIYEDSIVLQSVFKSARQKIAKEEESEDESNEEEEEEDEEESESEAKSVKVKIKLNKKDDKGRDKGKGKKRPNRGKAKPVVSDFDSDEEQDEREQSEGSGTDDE
T2 sequence (P51532 whole entry): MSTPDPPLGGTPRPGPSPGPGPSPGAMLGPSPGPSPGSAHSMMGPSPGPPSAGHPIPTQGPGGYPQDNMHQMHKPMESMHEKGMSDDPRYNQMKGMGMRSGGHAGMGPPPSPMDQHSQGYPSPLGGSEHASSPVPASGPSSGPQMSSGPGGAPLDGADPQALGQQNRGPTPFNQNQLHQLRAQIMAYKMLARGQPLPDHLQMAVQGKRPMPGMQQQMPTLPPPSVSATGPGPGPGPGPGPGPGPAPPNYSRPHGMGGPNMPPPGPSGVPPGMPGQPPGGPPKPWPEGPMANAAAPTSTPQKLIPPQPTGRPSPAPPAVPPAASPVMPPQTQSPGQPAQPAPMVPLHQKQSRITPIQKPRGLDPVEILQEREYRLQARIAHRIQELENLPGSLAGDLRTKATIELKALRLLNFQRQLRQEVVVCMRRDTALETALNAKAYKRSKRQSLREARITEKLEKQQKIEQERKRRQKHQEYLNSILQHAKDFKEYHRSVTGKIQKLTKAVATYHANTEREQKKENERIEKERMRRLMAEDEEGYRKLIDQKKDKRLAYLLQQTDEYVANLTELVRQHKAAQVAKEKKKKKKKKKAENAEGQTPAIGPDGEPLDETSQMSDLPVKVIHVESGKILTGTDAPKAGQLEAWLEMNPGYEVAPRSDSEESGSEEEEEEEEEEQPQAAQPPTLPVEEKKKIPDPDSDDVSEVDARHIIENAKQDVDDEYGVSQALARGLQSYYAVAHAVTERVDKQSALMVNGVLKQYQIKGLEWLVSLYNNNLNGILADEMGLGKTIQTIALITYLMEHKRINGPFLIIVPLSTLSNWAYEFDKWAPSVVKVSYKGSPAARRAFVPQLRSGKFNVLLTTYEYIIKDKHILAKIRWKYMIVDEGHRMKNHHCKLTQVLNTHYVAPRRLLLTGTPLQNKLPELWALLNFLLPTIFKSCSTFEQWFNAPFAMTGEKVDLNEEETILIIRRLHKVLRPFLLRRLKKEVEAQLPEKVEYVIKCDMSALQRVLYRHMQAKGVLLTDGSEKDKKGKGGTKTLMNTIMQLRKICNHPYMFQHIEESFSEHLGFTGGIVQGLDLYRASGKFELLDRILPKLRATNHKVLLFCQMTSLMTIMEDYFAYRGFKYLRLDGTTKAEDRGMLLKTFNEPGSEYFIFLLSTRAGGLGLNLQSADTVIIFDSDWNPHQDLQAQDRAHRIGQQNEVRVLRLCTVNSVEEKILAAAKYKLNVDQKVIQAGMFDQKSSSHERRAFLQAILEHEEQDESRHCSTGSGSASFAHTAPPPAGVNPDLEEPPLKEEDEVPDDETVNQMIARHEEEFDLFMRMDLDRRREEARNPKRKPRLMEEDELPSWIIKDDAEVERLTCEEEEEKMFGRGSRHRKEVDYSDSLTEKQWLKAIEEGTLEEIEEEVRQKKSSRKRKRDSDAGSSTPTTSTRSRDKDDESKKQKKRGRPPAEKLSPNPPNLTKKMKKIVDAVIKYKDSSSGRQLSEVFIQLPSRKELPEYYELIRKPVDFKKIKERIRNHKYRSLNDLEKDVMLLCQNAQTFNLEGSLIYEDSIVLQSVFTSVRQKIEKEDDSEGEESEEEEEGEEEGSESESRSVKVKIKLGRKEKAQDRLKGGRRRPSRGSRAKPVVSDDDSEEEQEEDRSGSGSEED

Structure (SMILES)	DC50 (SMARCA2-HiBiT)	Dmax (SMARCA2-HiBiT)	DC50 (SMARCA4-HiBiT)	Dmax (SMARCA4-HiBiT)
CC1(CN2C[C@@H]3[C@@H](CN4CCN5c6cc(-c7ccccc7O)nnc6NC[C@H]5C4)[C@@H]3C2)CCN(c2ccc3c(c2)C(=O)N(C2CCC(=O)NC2=O)C3=O)C1 (stereo partly drawn) [Example 151, 2-(2,6-dioxopiperidin-3-yl)-5-(3-(((1R,5S,6r)-6-(((S)-2-(2-hydroxyphenyl)-5,6,6a,7,9,10-hexahydro-8H-pyrazino[1′,2′:4,5]pyrazino[2,3-c]pyridazin-8-yl)methyl)-3-azabicyclo[3.1.0]hexan-3-yl)methyl)-3-methylpyrrolidin-1-yl)isoindoline-1,3-dione]	< 10 nM	75 to 85%	10 to 100 nM	50 to 75%
O=C1CCC(N2Cc3cc(N4CCC(CN5CCC(OC(=O)N6CCN7c8cc(-c9ccccc9O)nnc8NC[C@H]7C6)CC5)CC4)ccc3C2=O)C(=O)N1 (stereo partly drawn) [Example 83, 1-((1-(2-(2,6-dioxopiperidin-3-yl)-1-oxoisoindolin-5-yl)piperidin-4-yl)methyl)piperidin-4-yl (6aS)-2-(2-hydroxyphenyl)-5,6,6a,7,9,10-hexahydro-8H-pyrazino[1′,2′:4,5]pyrazino[2,3-c]pyridazine-8-carboxylate]	< 10 nM	> 85%	< 10 nM	75 to 85%
CC1(CN2C[C@@H]3[C@@H](CN4CCN5c6cc(-c7ccccc7O)nnc6NC[C@H]5C4)[C@@H]3C2)CN(c2ccc3c(c2)C(=O)N(C2CCC(=O)NC2=O)C3=O)CCO1 (stereo partly drawn) [Example 59, 2-(2,6-dioxopiperidin-3-yl)-5-(2-(((1R,5S,6s)-6-(((S)-2-(2-hydroxyphenyl)-5,6,6a,7,9,10-hexahydro-8H-pyrazino[1′,2′:4,5]pyrazino[2,3-c]pyridazin-8-yl)methyl)-3-azabicyclo[3.1.0]hexan-3-yl)methyl)-2-methylmorpholino)isoindoline-1,3-dione]	< 10 nM	75 to 85%	10 to 100 nM	75 to 85%

More lines, now with the values ahead:

DC50 (SMARCA2-HiBiT)	Dmax (SMARCA2-HiBiT)	DC50 (SMARCA4-HiBiT)	Dmax (SMARCA4-HiBiT)	Structure (SMILES)
< 10 nM	> 85%	< 10 nM	> 85%	O=C1CCC(N2C(=O)c3ccc(N4CCC(CN5CCC(CN6CCN7c8cc(-c9ccccc9O)nnc8NC[C@H]7C6)CC5)C4)cc3C2=O)C(=O)N1 (stereo partly drawn) [Example 225, 2-(2,6-dioxopiperidin-3-yl)-5-(3-((4-(((S)-2-(2-hydroxyphenyl)-5,6,6a,7,9,10-hexahydro-8H-pyrazino[1′,2′:4,5]pyrazino[2,3-c]pyridazin-8-yl)methyl)piperidin-1-yl)methyl)pyrrolidin-1-yl)isoindoline-1,3-dione]
< 10 nM	50 to 75%	10 to 100 nM	75 to 85%	O=C1CCC(N2C(=O)c3ccc(N4CC(CN5CCC(CN6CCN7c8cc(-c9ccccc9O)nnc8NC[C@H]7C6)CC5)C(F)(F)C4)cc3C2=O)C(=O)N1 (stereo partly drawn) [Example 191, 5-[3,3-difluoro-4-[[4-[[(10S)-4-(2-hydroxyphenyl)-1,5,6,8,12-pentazatricyclo[8.4.0.02,7]tetradeca-2(7),3,5-trien-12-yl]methyl]piperidin-1-yl]methyl]pyrrolidin-1-yl]-2-(2,6-dioxopiperidin-3-yl)isoindole-1,3-dione]
< 10 nM	50 to 75%	10 to 100 nM	50 to 75%	O=C1CCC(N2C(=O)c3ccc(N4CCC(CN5CCN(C(=O)N6CCN7c8cc(-c9ccccc9O)nnc8NC[C@H]7C6)CC5)C(F)(F)C4)cc3C2=O)C(=O)N1 (stereo partly drawn) [Example 195, 5-[3,3-difluoro-4-[[4-[(10S)-4-(2-hydroxyphenyl)-1,5,6,8,12-pentazatricyclo[8.4.0.02,7]tetradeca-2(7),3,5-trien-12-carbonyl]piperazin-1-yl]methyl]piperidin-1-yl]-2-(2,6-dioxopiperidin-3-yl) isoindole-1,3-dione]
